In PubChem BioAssay AID1918947 (Molecular Pharmacology Branch, DTP, NCI, 2023):
Several values for one entry are separate records, joined by “and”; a condition that tells them apart may be missing. Identical values can stand only once.

Test system: A498 complex spheroid viability
Assay: Anticancer human tumor A498 cell line growth inhibition;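 further: spheroids exposed to agents for seven days before readout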;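 on viability, T/C: 100% = DMSO vehicle-treated spheroids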
Conditions: for viability, T/C: stronger effect = lower value; active means viability on the fitted dose curve at most 10% of control; inactive means the rest
How it was run: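 Drug combinations with the LSD1 inhibitor iadademstat tested on tumor cells co-cultured as spheroids with endothelial cells and mesenchymal stem cells. Concentrations descended in half-log increments from clinical Cmax or 10 microM.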

[1] = curve of first compound, second compound 0.1 µM
[2] = curve of first compound, second compound 0.316 µM
[3] = curve of first compound, second compound 1 µM
[4] = curve of first compound, second compound 3.16 µM
[5] = curve of first compound, second compound 10 µM
[6] = second compound 0.1 µM, first compound 0.0316 µM
[7] = second compound 0.1 µM, first compound 0.1 µM
[8] = second compound 0.1 µM, first compound 0.316 µM
[9] = second compound 0.1 µM, first compound 1 µM
[10] = second compound 0.316 µM, first compound 0.0316 µM
[11] = second compound 0.316 µM, first compound 0.1 µM
[12] = second compound 0.316 µM, first compound 0.316 µM
[13] = second compound 0.316 µM, first compound 1 µM
[14] = second compound 1 µM, first compound 0.0316 µM
[15] = second compound 1 µM, first compound 0.1 µM
[16] = second compound 1 µM, first compound 0.316 µM
[17] = second compound 1 µM, first compound 1 µM
[18] = second compound 3.16 µM, first compound 0.0316 µM
[19] = second compound 3.16 µM, first compound 0.1 µM
[20] = second compound 3.16 µM, first compound 0.316 µM
[21] = second compound 3.16 µM, first compound 1 µM
[22] = second compound 10 µM, first compound 0.0316 µM
[23] = second compound 10 µM, first compound 0.1 µM
[24] = second compound 10 µM, first compound 0.316 µM
[25] = second compound 10 µM, first compound 1 µM
[26] = second compound 0.1 µM, first compound 0.00949 µM
[27] = second compound 0.1 µM, first compound 0.03 µM
[28] = second compound 0.1 µM, first compound 0.0949 µM
[29] = second compound 0.1 µM, first compound 0.3 µM
[30] = second compound 0.1 µM, first compound 0.949 µM
[31] = second compound 0.1 µM, first compound 3 µM
[32] = second compound 0.316 µM, first compound 0.00949 µM
[33] = second compound 0.316 µM, first compound 0.03 µM
[34] = second compound 0.316 µM, first compound 0.0949 µM
[35] = second compound 0.316 µM, first compound 0.3 µM
[36] = second compound 0.316 µM, first compound 0.949 µM
[37] = second compound 0.316 µM, first compound 3 µM
[38] = second compound 1 µM, first compound 0.00949 µM
[39] = second compound 1 µM, first compound 0.03 µM
[40] = second compound 1 µM, first compound 0.0949 µM
[41] = second compound 1 µM, first compound 0.3 µM
[42] = second compound 1 µM, first compound 0.949 µM
[43] = second compound 1 µM, first compound 3 µM
[44] = second compound 3.16 µM, first compound 0.00949 µM
[45] = second compound 3.16 µM, first compound 0.03 µM
[46] = second compound 3.16 µM, first compound 0.0949 µM
[47] = second compound 3.16 µM, first compound 0.3 µM
[48] = second compound 3.16 µM, first compound 0.949 µM
[49] = second compound 3.16 µM, first compound 3 µM
[50] = second compound 10 µM, first compound 0.00949 µM
[51] = second compound 10 µM, first compound 0.03 µM
[52] = second compound 10 µM, first compound 0.0949 µM
[53] = second compound 10 µM, first compound 0.3 µM
[54] = second compound 10 µM, first compound 0.949 µM
[55] = second compound 10 µM, first compound 3 µM

COc1cc(Nc2ncc3c(n2)-c2ccc(Cl)cc2C(c2c(F)cccc2OC)=NC3)ccc1C(=O)O + NC1CC1c1ccc(-c2cccc(O)c2)cc1
65.4 nM: IC50 [5]
282 nM: IC50 [2]
80.6 nM: IC50 [3]
inactive: viability, T/C (second compound 0.1 µM, first compound 0.00316 µM) 76.7% | viability, T/C (second compound 0.1 µM, first compound 0.01 µM) 65.5% | viability, T/C [6] 58.5% | viability, T/C [7] 54% | viability, T/C [8] 49.4% | viability, T/C [9] 41% | viability, T/C (second compound 0.316 µM, first compound 0.00316 µM) 85.2% | viability, T/C (second compound 0.316 µM, first compound 0.01 µM) 72.3% | viability, T/C [10] 66.9% | viability, T/C [11] 56% | viability, T/C [12] 52.1% | viability, T/C [13] 39.9% | viability, T/C (second compound 1 µM, first compound 0.00316 µM) 78.7% | viability, T/C (second compound 1 µM, first compound 0.01 µM) 60.7% | viability, T/C [14] 58% | viability, T/C [15] 48.2% | viability, T/C [16] 44.8% | viability, T/C [17] 34.6% | viability, T/C (second compound 3.16 µM, first compound 0.00316 µM) 71.1% | viability, T/C (second compound 3.16 µM, first compound 0.01 µM) 53.8% | viability, T/C [18] 52.6% | viability, T/C [19] 46.4% | viability, T/C [20] 42.2% | viability, T/C [21] 36.9% | viability, T/C (second compound 10 µM, first compound 0.00316 µM) 76.6% | viability, T/C (second compound 10 µM, first compound 0.01 µM) 59.3% | viability, T/C [22] 54.1% | viability, T/C [23] 50.8% | viability, T/C [24] 40.1% | viability, T/C [25] 31.6%
185 nM: IC50 [1]
34.6 nM: IC50 [4]

CC(C)c1c(-c2ccccc2)nc2c(C#N)c[nH]n2c1=O
> 10000 nM: IC50 (curve of compound)
inactive: viability, T/C (compound 0.0316 µM) 101% and 102% | viability, T/C (compound 0.1 µM) 104% and 102% | viability, T/C (compound 0.316 µM) 101% and 104% | viability, T/C (compound 1 µM) 103% and 97.9% | viability, T/C (compound 3.16 µM) 102% and 107% | viability, T/C (compound 10 µM) 101% and 107%

CC1(C)CCC(CN2CCN(c3ccc(C(=O)NS(=O)(=O)c4ccc(NCC5CCOCC5)c([N+](=O)[O-])c4)c(Oc4cnc5[nH]ccc5c4)c3)CC2)=C(c2ccc(Cl)cc2)C1 + NC1CC1c1ccc(-c2cccc(O)c2)cc1
3840 nM: IC50 [5]
inactive: viability, T/C [6] 109% | viability, T/C [7] 106% | viability, T/C [8] 102% | viability, T/C [9] 93.1% | viability, T/C (second compound 0.1 µM, first compound 3.16 µM) 69.6% | viability, T/C [10] 108% | viability, T/C [11] 112% | viability, T/C [12] 96.6% | viability, T/C [13] 88.2% | viability, T/C (second compound 0.316 µM, first compound 3.16 µM) 66.7% | viability, T/C [14] 103% | viability, T/C [15] 99.6% | viability, T/C [16] 98.9% | viability, T/C [17] 84.3% | viability, T/C (second compound 1 µM, first compound 3.16 µM) 64.1% | viability, T/C [18] 100% | viability, T/C [19] 91.4% | viability, T/C [20] 98.9% | viability, T/C [21] 86.1% | viability, T/C (second compound 3.16 µM, first compound 3.16 µM) 57.2% | viability, T/C [22] 91.9% | viability, T/C [23] 91.6% | viability, T/C [24] 86.6% | viability, T/C [25] 77.8% | viability, T/C (second compound 10 µM, first compound 3.16 µM) 59.9%
4160 nM: IC50 [2]
4510 nM: IC50 [1]
3700 nM: IC50 [4]
4080 nM: IC50 [3]
active: viability, T/C (second compound 0.1 µM, first compound 10 µM) 7.58% | viability, T/C (second compound 0.316 µM, first compound 10 µM) 5.66% | viability, T/C (second compound 1 µM, first compound 10 µM) 6.2% | viability, T/C (second compound 3.16 µM, first compound 10 µM) 5.72% | viability, T/C (second compound 10 µM, first compound 10 µM) 7.06%

O=C(C=Cc1cccc(S(=O)(=O)Nc2ccccc2)c1)NO + NC1CCC(NC2CC2c2ccccc2)CC1
168 nM: IC50 [4]
inactive: viability, T/C [26] 81.5% | viability, T/C [27] 82.3% | viability, T/C [28] 67.1% | viability, T/C [29] 43.2% | viability, T/C [30] 33.6% | viability, T/C [31] 12.9% | viability, T/C [32] 88% | viability, T/C [33] 87.1% | viability, T/C [34] 69.3% | viability, T/C [35] 41.2% | viability, T/C [36] 33.1% | viability, T/C [37] 11.7% | viability, T/C [38] 79.1% | viability, T/C [39] 78% | viability, T/C [40] 63.1% | viability, T/C [41] 46.8% | viability, T/C [42] 28.1% | viability, T/C [43] 10.4% | viability, T/C [44] 79.9% | viability, T/C [45] 72.7% | viability, T/C [46] 60.4% | viability, T/C [47] 38.8% | viability, T/C [48] 23.2% | viability, T/C [50] 70.4% | viability, T/C [51] 64.6% | viability, T/C [52] 56.5% | viability, T/C [53] 36% | viability, T/C [54] 22.9%
131 nM: IC50 [5]
250 nM: IC50 [3]
active: viability, T/C [49] 8.14% | viability, T/C [55] 7.67%
266 nM: IC50 [1]
253 nM: IC50 [2]

CCN(c1cc(-c2ccc(CN3CCOCC3)cc2)cc(C(=O)NCc2c(C)cc(C)[nH]c2=O)c1C)C1CCOCC1 + NC1CCC(NC2CC2c2ccccc2)CC1
inactive: viability, T/C [26] 85.8% | viability, T/C [27] 90.7% | viability, T/C [28] 92.1% | viability, T/C [29] 91.4% | viability, T/C [30] 94.4% | viability, T/C [31] 92.9% | viability, T/C [32] 93.2% | viability, T/C [33] 101% | viability, T/C [34] 100% | viability, T/C [35] 98.9% | viability, T/C [36] 92.4% | viability, T/C [37] 92.9% | viability, T/C [38] 91.7% | viability, T/C [39] 97% | viability, T/C [40] 97.3% | viability, T/C [41] 90.1% | viability, T/C [42] 86.8% | viability, T/C [43] 87.2% | viability, T/C [44] 87.3% | viability, T/C [45] 95% | viability, T/C [46] 90.6% | viability, T/C [47] 89.1% | viability, T/C [48] 85.8% | viability, T/C [49] 78.2% | viability, T/C [50] 80.4% | viability, T/C [51] 87.5% | viability, T/C [52] 88.4% | viability, T/C [53] 82.1% | viability, T/C [54] 82.7% | viability, T/C [55] 72.9%
> 3000 nM: IC50 [1] | IC50 [2] | IC50 [3] | IC50 [4] | IC50 [5]

NS(=O)(=O)OCC1CC(n2ccc3c(NC4CCc5ccccc54)ncnc32)CC1O (stereo unspecified)
39.2 nM and 45.3 nM: IC50 (curve of compound)
inactive: viability, T/C (compound 0.00949 µM) 81% and 90.7% | viability, T/C (compound 0.03 µM) 57.2% and 60.5% | viability, T/C (compound 0.0949 µM) 27.1% and 30.7% | viability, T/C (compound 0.3 µM) 18.4% and 21.2% | viability, T/C (compound 0.949 µM) 12.2% and 15.6% | viability, T/C (compound 3 µM) 9.37% and 11.7%

O=C(C=Cn1cnc(-c2cc(C(F)(F)F)cc(C(F)(F)F)c2)n1)NNc1cnccn1
7.74 nM and 6.34 nM: IC50 (curve of compound)
inactive: viability, T/C (compound 0.00316 µM) 71.3% and 66.5% | viability, T/C (compound 0.01 µM) 42.9% and 36.6% | viability, T/C (compound 0.0316 µM) 32.5% and 31.3% | viability, T/C (compound 0.1 µM) 29.1% and 26.8% | viability, T/C (compound 0.316 µM) 25.6% and 26.2% | viability, T/C (compound 1 µM) 22.2% and 17.3%
